Results published in patent US20110061129A1 (priority 2008, published 2011).

How the values were obtained:
[1] = system: total translation in BY4743 and YKO strains; type: cell-based, Saccharomyces cerevisiae
[2] = system: Saccharomyces cerevisiae homozygous diploid YKO strains and parental strain BY4743; type: cell-based
[3] = system: mitochondrial translation in BY4743 and YKO strains; type: cell-based, Saccharomyces cerevisiae
[4] = system: Saccharomyces cerevisiae homozygous diploid YKO strains and parental strain BY4743; type: cell-based; remark: listed apart in the source

In the case of `C/C=C\C(=O)O[C@@H]1C[C@H]2O[C@@H]3C=C(C)C(=O)C[C@]3(C)[C@]1(C)[C@]21CO1` [T-cin, trichothecin], the “inhibition of the cytosolic translation rate of BY4743” value [1] is reported as 80-90%, the “effect of the 2 μM screening concentration on growth (parental strain)” value [2] is reported as “non-lethal” and the “effect on mitochondrial translation” value [3] is reported as “able to inhibit mitochondrial translation”. The “effect of the screening level of toxin on the parental strain” value [4] was “lethal”.
